Laboratory results as given in patent US20250195536A1, “BICYCLOOCTANE KRAS INHIBITORS” (Incyte Corporation, priority 2023, published 2025).

Assays:
[1] = molecular target: KRAS G12V (Homo sapiens, UniProt P01116, G12V); assay: GDP-GTP exchange assay (KRAS G12V); format: biochemical; conditions: bodipy-GDP/GppNHp exchange with SOS1; 3 h incubation after GppNHp-SOS1;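 note: one dagger IC50 up to 100 nM and two daggers above 100 nM up to 1 μM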
Procedure, shortened: (§1)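 IC50 came from a four-parameter fit of fluorescence loss (485/520 nm) as SOS1 (150 nM) swapped bodipy-GDP for GppNHp (500 μM) on 2.5 nM KRAS, final concentrations. Compounds were pre-incubated 4 h at r.t. (pH 7.5 Hepes, 10 mM MgCl2); exchange ran 2 h (G12D) or 3 h (G12V).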

[2] = Caco2 assay (permeability, Papp A-B); format: in vitro ADME; conditions: human, Caco-2, absorptive direction (A-B), 50 μM test compound, 4% BSA in receiver
Procedure, shortened: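 Absorptive (A-B) Papp: 50 μM test compound in HBSS added to apical side of 22-25-day Caco-2 monolayers (TEER 300 Ω·cm^2), receiver buffer containing 4% BSA. After 120 min at 37 °C, 5% CO2, both sides analysed by LCMS; Papp calculated from flux rate normalized to area and donor amount.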

[3] = molecular target: KRAS G12D (Homo sapiens, UniProt P01116, G12D); assay: GDP-GTP exchange assay (KRAS G12D); format: biochemical; conditions: bodipy-GDP/GppNHp exchange with SOS1; 4 h pre-incubation, 2 h reaction;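 note: one dagger IC50 up to 100 nM and two daggers above 100 nM up to 1 μM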
Chain of KRAS G12D (P01116 1-188 isoform P01116-2 G12D): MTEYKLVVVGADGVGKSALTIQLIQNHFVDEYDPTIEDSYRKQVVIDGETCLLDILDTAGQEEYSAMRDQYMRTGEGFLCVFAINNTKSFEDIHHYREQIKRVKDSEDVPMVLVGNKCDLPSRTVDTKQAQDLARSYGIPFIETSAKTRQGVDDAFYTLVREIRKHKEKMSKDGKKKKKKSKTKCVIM
Procedure, shortened: as §1

Chain of KRAS G12V (P01116 1-188 isoform P01116-2 G12V): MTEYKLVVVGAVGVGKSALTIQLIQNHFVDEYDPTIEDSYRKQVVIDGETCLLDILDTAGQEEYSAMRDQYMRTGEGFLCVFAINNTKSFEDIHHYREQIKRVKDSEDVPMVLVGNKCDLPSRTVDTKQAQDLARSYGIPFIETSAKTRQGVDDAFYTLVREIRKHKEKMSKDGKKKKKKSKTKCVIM

SMILES	G12V_exchange (KRAS_G12V exchange assay IC50) [1]	Papp A→B at 120 min, 50 μM [2] [×10⁻⁶ cm/s]	G12D_exchange (KRAS_G12D exchange assay IC50) [3]
Cc1nc2c(F)c(-c3cccc(Cl)c3Cl)c(CCC#N)cc2c2c1cc([C@H]1[C@H]3C[C@H](CN(c4cc(C(F)F)c(F)cn4)C3)N1C(=O)C1CC1)n2[C@H]1[C@H]2CN[C@@H]1C2 (atropisomer, axis not shown; (Ra)) [Example 85, 3-((Ra)-1-((1R,4R,5S)-2-azabicyclo[2.1.1]hexan-5-yl)-2-((1S,5R,7R)-6-(cyclopropanecarbonyl)-3-(4-(difluoromethyl)-5-fluoropyridin-2-yl)-3,6-diazabicyclo[3.2.1]octan-7-yl)-7-(2,3-dichlorophenyl)-6-fluoro-4-methyl-1H-pyrrolo[3,2-c]quinolin-8-yl)propanenitrile]	†	≤ 0.5	†
Cc1nc2c(F)c(-c3cccc(Cl)c3Cl)c(CCC#N)cc2c2c1cc([C@H]1[C@H]3C[C@H](CN(c4cncc(C(F)(F)F)c4)C3)N1C(=O)C1CC1)n2[C@H]1[C@H]2CN[C@@H]1C2 (atropisomer, axis not shown; (Ra)) [Example 21, 3-((Ra)-1-((1R,4R,5S)-2-azabicyclo[2.1.1]hexan-5-yl)-2-((1S,5R,7R)-6-(cyclopropanecarbonyl)-3-(5-(trifluoromethyl)pyridin-3-yl)-3,6-diazabicyclo[3.2.1]octan-7-yl)-7-(2,3-dichlorophenyl)-6-fluoro-4-methyl-1H-pyrrolo[3,2-c]quinolin-8-yl)propanenitrile]	†	≤ 0.5	†
Cc1nc2c(F)c(-c3cccc(Cl)c3Cl)c(CCC#N)cc2c2c1cc([C@H]1[C@H]3C[C@H](CN(c4ncccc4C#N)C3)N1C(=O)C1CC1)n2[C@H]1[C@H]2CN[C@@H]1C2 (atropisomer, axis not shown; (Ra)) [Example 47, 2-((1S,5R,7R)-7-((Ra)-1-((1R,4R,5S)-2-azabicyclo[2.1.1]hexan-5-yl)-8-(2-cyanoethyl)-7-(2,3-dichlorophenyl)-6-fluoro-4-methyl-1H-pyrrolo[3,2-c]quinolin-2-yl)-6-(cyclopropanecarbonyl)-3,6-diazabicyclo[3.2.1]octan-3-yl)nicotinonitrile]	†	≤ 0.5	††
Cc1nc2c(F)c(-c3cccc(Cl)c3Cl)c(CCC#N)cc2c2c1cc([C@H]1[C@H]3C[C@H](CN(c4ccc(C(F)F)nc4)C3)N1C(=O)C1CC1)n2[C@H]1[C@H]2CN[C@@H]1C2 (atropisomer, axis not shown; (Ra)) [Example 22, 3-((Ra)-1-((1R,4R,5S)-2-azabicyclo[2.1.1]hexan-5-yl)-2-((1S,5R,7R)-6-(cyclopropanecarbonyl)-3-(6-(difluoromethyl)pyridin-3-yl)-3,6-diazabicyclo[3.2.1]octan-7-yl)-7-(2,3-dichlorophenyl)-6-fluoro-4-methyl-1H-pyrrolo[3,2-c]quinolin-8-yl)propanenitrile]	†	≤ 0.5	†
Cc1nc2c(F)c(-c3cccc(Cl)c3Cl)c(CCC#N)cc2c2c1cc([C@H]1[C@H]3C[C@H](CN(c4ncccc4F)C3)N1C(=O)C1CC1)n2[C@H]1[C@H]2CN[C@@H]1C2 (atropisomer, axis not shown; (Ra)) [Example 46, 3-((Ra)-1-((1R,4R,5S)-2-azabicyclo[2.1.1]hexan-5-yl)-2-((1S,5R,7R)-6-(cyclopropanecarbonyl)-3-(3-fluoropyridin-2-yl)-3,6-diazabicyclo[3.2.1]octan-7-yl)-7-(2,3-dichlorophenyl)-6-fluoro-4-methyl-1H-pyrrolo[3,2-c]quinolin-8-yl)propanenitrile]	†	≤ 0.5	†
Cc1nc2c(F)c(-c3cccc(Cl)c3Cl)c(CCC#N)cc2c2c1cc([C@H]1[C@H]3C[C@H](CN(c4ccc5c(c4)OC(F)(F)O5)C3)N1C(=O)C1CC1)n2[C@H]1[C@H]2CN[C@@H]1C2 (atropisomer, axis not shown; (Ra)) [Example 7, 3-((Ra)-1-((1R,4R,5S)-2-azabicyclo[2.1.1]hexan-5-yl)-2-((1S,5R,7R)-6-(cyclopropanecarbonyl)-3-(2,2-difluorobenzo[d][1,3]dioxol-5-yl)-3,6-diazabicyclo[3.2.1]octan-7-yl)-7-(2,3-dichlorophenyl)-6-fluoro-4-methyl-1H-pyrrolo[3,2-c]quinolin-8-yl)propanenitrile]	†	≤ 0.5	†
Cc1nc2c(F)c(-c3cccc(Cl)c3Cl)c(CCC#N)cc2c2c1cc([C@H]1[C@H]3C[C@H](CN(c4ccnc(C(F)(F)F)c4)C3)N1C(=O)C1CC1)n2[C@H]1[C@H]2CN[C@@H]1C2 (atropisomer, axis not shown; (Ra)) [Example 38, 3-((Ra)-1-((1R,4R,5S)-2-azabicyclo[2.1.1]hexan-5-yl)-2-((1S,5R,7R)-6-(cyclopropanecarbonyl)-3-(2-(trifluoromethyl)pyridin-4-yl)-3,6-diazabicyclo[3.2.1]octan-7-yl)-7-(2,3-dichlorophenyl)-6-fluoro-4-methyl-1H-pyrrolo[3,2-c]quinolin-8-yl)propanenitrile]	†	≤ 0.5	†
Cc1nc2c(F)c(-c3cccc(Cl)c3Cl)c(CCC#N)cc2c2c1cc([C@H]1[C@H]3C[C@H](CN(c4cnc(C(F)(F)F)cn4)C3)N1C(=O)C1CC1)n2[C@H]1[C@H]2CN[C@@H]1C2 (atropisomer, axis not shown; (Ra)) [Example 44, 3-((Ra)-1-((1R,4R,5S)-2-azabicyclo[2.1.1]hexan-5-yl)-2-((1S,5R,7R)-6-(cyclopropanecarbonyl)-3-(5-(trifluoromethyl)pyrazin-2-yl)-3,6-diazabicyclo[3.2.1]octan-7-yl)-7-(2,3-dichlorophenyl)-6-fluoro-4-methyl-1H-pyrrolo[3,2-c]quinolin-8-yl)propanenitrile]	†	≤ 0.5	†
Cc1nc2c(F)c(-c3cccc(Cl)c3Cl)c(CCC#N)cc2c2c1cc([C@H]1[C@H]3C[C@H](CN(c4ccc(F)cc4)C3)N1C(=O)C1CC1)n2[C@H]1[C@H]2CN[C@@H]1C2 (atropisomer, axis not shown; (Ra)) [Example 23, 3-((Ra)-1-((1R,4R,5S)-2-azabicyclo[2.1.1]hexan-5-yl)-2-((1S,5R,7R)-6-(cyclopropanecarbonyl)-3-(4-fluorophenyl)-3,6-diazabicyclo[3.2.1]octan-7-yl)-7-(2,3-dichlorophenyl)-6-fluoro-4-methyl-1H-pyrrolo[3,2-c]quinolin-8-yl)propanenitrile]	†	≤ 0.5	†
Cc1noc(C)c1S(=O)(=O)N1C[C@@H]2C[C@H](C1)N(C(=O)C1CC1)[C@H]2c1cc2c(C)nc3c(F)c(-c4cccc(Cl)c4Cl)c(CCC#N)cc3c2n1[C@H]1[C@H]2CN[C@@H]1C2 (atropisomer, axis not shown; (Ra)) [Example 110, 3-((Ra)-1-((1R,4R,5S)-2-Azabicyclo[2.1.1]hexan-5-yl)-2-((1 S,5R,7R)-6-(cyclopropanecarbonyl)-3-((3,5-dimethylisoxazol-4-yl)sulfonyl)-3,6-diazabicyclo[3.2.1]octan-7-yl)-7-(2,3-dichlorophenyl)-6-fluoro-4-methyl-1H-pyrrolo[3,2-c]quinolin-8-yl)propanenitrile]	†	≤ 0.5	†
Cc1nc2c(F)c(-c3cccc(Cl)c3Cl)c(CCC#N)cc2c2c1cc([C@H]1[C@H]3C[C@H](CN(c4ccc(C(F)(F)F)cc4)C3)N1C(=O)C1CC1)n2[C@H]1[C@H]2CN[C@@H]1C2 (atropisomer, axis not shown; (Ra)) [Example 12, 3-((Ra)-1-((1R,4R,5S)-2-azabicyclo[2.1.1]hexan-5-yl)-2-((1S,5R,7R)-6-(cyclopropanecarbonyl)-3-(4-(trifluoromethyl)phenyl)-3,6-diazabicyclo[3.2.1]octan-7-yl)-7-(2,3-dichlorophenyl)-6-fluoro-4-methyl-1H-pyrrolo[3,2-c]quinolin-8-yl)propanenitrile]	†	≤ 0.5	††
Cc1nc2c(F)c(-c3cccc(Cl)c3Cl)c(CCC#N)cc2c2c1cc([C@H]1[C@H]3C[C@H](CN(c4ccc(C#N)cc4)C3)N1C(=O)C1CC1)n2[C@H]1[C@H]2CN[C@@H]1C2 (atropisomer, axis not shown; (Ra)) [Example 4, 4-((1S,5R,7R)-7-((Ra)-1-((1R,4R,5S)-2-azabicyclo[2.1.1]hexan-5-yl)-8-(2-cyanoethyl)-7-(2,3-dichlorophenyl)-6-fluoro-4-methyl-1H-pyrrolo[3,2-c]quinolin-2-yl)-6-(cyclopropanecarbonyl)-3,6-diazabicyclo[3.2.1]octan-3-yl)benzonitrile]	†	≤ 0.5	†
